Measured values: patent US20190262355A1, “COMBINATION OF A BRD4 INHIBITOR AND AN ANTIFOLATE FOR THE THERAPY OF CANCER” (CeMM-Forschungszentrum für Molekulare Medizin GmbH, priority 2016, published 2019)
Each block holds one molecule with its values, some of them ahead of it. No end group written: not given here.

Columns and labels:
WT-KBM7 cells = experiment: Cell cycle profile by PI staining and FACS (diploidization); format: cell-based, human; conditions: treated overnight during one week, PI incorporation and FACS (FIG. 6D)
Method: For cell cycle analysis, 1 million cells were fixed with 70% ethanol for 24 hours, washed with PBS/1% BSA/0.1% Tween and incubated with RNase for 30 minutes. Nuclei were stained with 5 μg/ml PI (propidium iodide, Sigma) for 10 minutes prior to FACS analysis (BD FACSCalibur Flow Cytometer).
The prerequisite for effective GT genetic screens is a haploid system where monoallelic disruptive GT integration results in gene knock-out (KO). Therefore, KBM7 cells, a chronic myeloid leukemia cell line with near haploid karyotype, were chosen for the generation of the BRD4 reporter cell lines as previously described^15. […] Propidium iodide (PI) incorporation and FACS analysis were used to assay the cell cycle profile of several REDS clones in order to select a haploid clone suitable for GT-based genetic screen. […] REDS1 was the only clonal cell line with haploid karyotype (see FIG. 6B), also confirmed by metaphase spreads (see FIG. 6C).

[1] = biological target: T1, chromatin-associated MTHFD1 (Homo sapiens, UniProt P11586); experiment: Western blot of chromatin associated proteins: MTHFD1; format: cell-based; conditions: HAP1 cells, two-hour treatment, 0.5 μM (FIG. 2C)
T1 construct: endogenous in cells; host or cells: HAP1
T1 sequence (P11586 1-935): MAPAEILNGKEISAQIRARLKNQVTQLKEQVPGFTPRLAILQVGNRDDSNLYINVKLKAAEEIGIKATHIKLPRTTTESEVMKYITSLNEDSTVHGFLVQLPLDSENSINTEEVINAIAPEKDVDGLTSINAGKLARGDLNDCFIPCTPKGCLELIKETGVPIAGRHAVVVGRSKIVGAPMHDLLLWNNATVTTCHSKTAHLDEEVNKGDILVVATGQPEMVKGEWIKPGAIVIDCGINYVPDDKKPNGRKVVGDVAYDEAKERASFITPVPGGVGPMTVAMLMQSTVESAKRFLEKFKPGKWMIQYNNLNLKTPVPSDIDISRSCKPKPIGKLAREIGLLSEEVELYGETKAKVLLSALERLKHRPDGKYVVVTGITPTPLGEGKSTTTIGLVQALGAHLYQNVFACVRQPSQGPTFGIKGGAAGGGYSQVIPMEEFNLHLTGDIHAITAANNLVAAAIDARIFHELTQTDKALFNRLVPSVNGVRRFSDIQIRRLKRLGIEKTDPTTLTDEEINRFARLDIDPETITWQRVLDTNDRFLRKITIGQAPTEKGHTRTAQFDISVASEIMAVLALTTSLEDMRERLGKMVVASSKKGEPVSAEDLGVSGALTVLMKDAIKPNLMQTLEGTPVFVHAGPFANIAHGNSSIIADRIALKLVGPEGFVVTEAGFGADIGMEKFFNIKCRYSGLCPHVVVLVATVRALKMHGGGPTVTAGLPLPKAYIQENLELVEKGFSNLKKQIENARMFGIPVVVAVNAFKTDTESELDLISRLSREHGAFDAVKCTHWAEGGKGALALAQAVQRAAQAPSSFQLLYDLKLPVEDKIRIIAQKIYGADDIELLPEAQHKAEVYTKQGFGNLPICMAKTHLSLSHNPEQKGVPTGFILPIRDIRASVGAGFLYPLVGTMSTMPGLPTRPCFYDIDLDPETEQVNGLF
Method: (§1) For Western Blot, proteins were separated on polyacrylamide gels with SDS running buffer (50 mM Tris, 380 mM Glycine, 7 mM SDS) and transferred to nitrocellulose blotting membranes. All membranes were blocked with blocking buffer (5% (m/v) milk powder (BioRad) in TBST (Tris-Buffered Saline with Tween: 50 mM Tris (tris (hydroxymethyl)aminomethane), 150 mM NaCl, 0.05% (v/v) Tween 20, adjusted to pH 7.6). Proteins were probed with antibodies against BRD4 (ab128874, 1:1000, Abcam), Actin (ab16039, 1:1000, Abcam), MTHFD1 (ab70203, Abcam; H120, Santa Cruz; A8, Santa Cruz; all used at 1:1000), GFP (G10362, 1:1000, Life Technology), RCC1 (C-20, 1:1000, Santa Cruz), β-Tubulin (T-4026, 1:1000, Sigma), SHMT1 (ab186130, 1:1000, Abcam) and H2B (ab156197, 1:1000, Abcam) and detected by HRP (horseradish peroxidase) conjugated donkey anti-rabbit IgG antibody (ab16284, 1:5000, Abcam) or donkey anti-mouse IgG antibody (Pierce) and visualized with the Pierce ECL Western Blotting substrate (Amersham), according to the provided protocol.
Cell fractionation and chromatin enrichment was carried out as previously described^29 with some adaptations. […]

[2] = test system: MTHFD1 binding to genomic loci; experiment: ChIP-Seq of MTHFD1 genomic binding in HAP1 cells; format: cell-based, human; conditions: 2 h treatment (1 μM per FIG. 16A)
Method: Three 15 cm dishes with cells at 70-80% of confluency were used for one ChIP experiment. Briefly, cells were cross-linked with 1% formaldehyde for 10 minutes at room temperature, and then quenched with 125 mM glycine for 5 minutes at room temperature. Then, cells were washed with cold PBS, collected in 15 ml tubes and washed again with cold PBS by centrifugation at 1200 rpm for 5 minutes at 4° C. and finally snap frozen.
ChIP was performed as described^18 by using BRD4 (Bethyl Laboratories, Inc.) and MTHFD1 (sc-271413, Santa Cruz) antibodies. In brief, crosslinked cell lysates were sonicated in order to shred the chromatin into 200-500 bp fragments. Fragmented chromatin was incubated overnight at 4° C. with antibodies, followed by 2 hours at 4° C. with pre-blocked Dynabeads Protein G (ThermoFisher Scientific). […]
Reads containing adapters were trimmed using Skewer^19 and aligned to the hg19/GRCh37 assembly of the Human genome using Bowtie2^20 with the “—very-sensitive” parameter and duplicate reads were marked and removed with sambamba. Library quality was assessed with the phantomPeakQualtools scripts^21. For visualization exclusively, the inventors generated genome browser tracks with the genomeCoverageBed command in BEDTools^22 and normalized such that each value represents the read count per base pair per million mapped and filtered reads. […]

GST-BRD4 (full length) = biological target: T2, GST-BRD4 (full length) (Homo sapiens, UniProt O60885); experiment: AlphaLISA assay of acetylated MTHFD1 peptides with GST-BRD4; format: binding
T2 construct: AlphaLISA assay performed with the indicated MTHFD1 acetylated peptides and GST-BRD4 (full length); made in house
Method: The Amplified Luminescent Proximity Homogenous Assay (AlphaLISA©), a homogenous and chemiluminescence-based method, was performed to explore the direct interaction of BRD4 and acetylated substrates.
Briefly, in this assay, the biotinylated MTHFD1 acetylated peptides (possible substrates) are captured by streptavidin-coupled donor beads. GST-tagged BRD4 (produced as previously described^15) is recognized and bound by an anti-GST antibody conjugated with an acceptor bead. In case of interaction between BRD4 and one acetylated peptide, the proximity between the partners (<200 nm) allows that the excitation (680 nm wavelength) of a donor bead induces the release of a singlet oxygen molecule (^1O2) that then triggers a cascade of energy transfer in the acceptor bead, resulting in a sharp peak of light emission at 615 nm.
GST-BRD4 and each of the MTHFD1 acetylated peptides were incubated together. After 30 minutes, GSH (Glutathione) Acceptor beads (PerkinElmer) were added and after another incubation time of 30 minutes, Streptavidin-conjugated donor beads (PerkinElmer) were added. The signal (alpha counts) was read by the EnVision 2104 Multilabel Reader (PerkinElmer).

BRD4-MTHFD1 interaction = biological target: T3, BRD4-MTHFD1 interaction (Homo sapiens, UniProt O60885+P11586); experiment: MTHFD1 pull-down on HAP1 whole cell lysates (BRD4-MTHFD1 interaction); format: binding; conditions: HAP1 whole cell lysates treated with 50 μM (FIG. 9I)
T3 construct: MTHFD1 pull-down performed on HAP1 whole cell lysates treated with 50 μM (S)-JQ1, MTX; endogenous in cells; host or cells: HAP1
Method: For immunoprecipitation, 1 mg of protein extract was incubated overnight at 4° C. with 10 μl of Dynabeads (either A or G, Life technology) preincubated for 2 hours at 4° C. with 1 μg of BRD4 (ab128874, Abcam), MTHFD1 (A8, Santa Cruz) or GFP (G10362, Life Technology) antibodies.

[3] = test system: MTHFD1 nuclear localization; experiment: Nuclear vs cytosol fractionation Western blot in HAP1 cells; format: cell-based, human; conditions: 72 hours (FIG. 9D)
Method: as §1

Molecule: Cc1sc2c(c1C)C(c1ccc(Cl)cc1)=N[C@H](CC(=O)OC(C)(C)C)c1nnc(C)n1-2 [(R)-JQ1]
- diploidization of WT-KBM7 (cell cycle profile) (WT-KBM7 cells): Only (S)-JQ1 treatment induced WT-KBM7 diploidization

Molecule: Cc1sc2c(c1C)C(c1ccc(Cl)cc1)=N[C@@H](CC(=O)NCCCCNC(=O)COc1cccc3c1C(=O)N(C1CCC(=O)NC1=O)C3=O)c1nnc(C)n1-2 (some centres unmarked) [dBET1]
- MTHFD1 on chromatin after degronimid treatment [1]: MTHFD1 was lost from chromatin

- MTHFD1 on chromatin after degronimid treatment [1]: MTHFD1 was lost from chromatin
Molecule: Cc1sc2c(c1C)C(c1ccc(Cl)cc1)=N[C@@H](CC(=O)NCCCCCCCCNC(=O)COc1cccc3c1C(=O)N(C1CCC(=O)NC1=O)C3=O)c1nnc(C)n1-2 (some centres unmarked) [dBET6]
- MTHFD1 binding to distinct genomic loci [2]: binding was lost

- increase of the alphaLISA signal (GST-BRD4 (full length); peptide used at high concentration (FIG. 9F)): ~5 fold
- alphaLISA peptide titration with GST-BRD4 (GST-BRD4 (full length); titration (FIG. 9G)): dose-responsive manner
Molecule: MTHFD1(47-66)K56ac: synthetic biotinylated MTHFD1 peptide, residues 47-66, acetylated at lysine 56 (DDSNLYINVK(Ac)LKAAEEIGIK; also: biotinylated, site not given here; UniProt P11586 47-66, looked up, fragment)
- effect on BRD4-MTHFD1 interaction in MTHFD1 pull-down (BRD4-MTHFD1 interaction): not able to inhibit the BRD4-MTHFD1 interaction

Molecule: ginkgolic acid
- redistribution of MTHFD1 between nucleus and cytoplasm [3]: did not cause a redistribution of MTHFD1 between the nucleus and cytoplasm
